Assay results as given in ChEMBL document CHEMBL1208764, “Morroniside cinnamic acid conjugate as an anti-inflammatory agent” (Bioorg Med Chem Lett, 2010).
The source made the active and inactive calls. The calls are words filed in the database; no cut-off is given here.

Assays:
[1] = system: HUVEC; test: Antiinflammatory activity in HUVEC assessed as inhibition of TNF-alpha-induced E-selection expression after 2 hrs by ELISA; type: functional, cell-based; details: Homo sapiens
[2] = system: HUVEC; test: Antiinflammatory activity in HUVEC assessed as inhibition of TNF-alpha-induced E-selection expression at 10-1000 ug/ml after 2 hrs by ELISA; type: functional, cell-based; details: Homo sapiens
[3] = system: HUVEC; test: Cytotoxicity against HUVEC assessed as LDH release at 10-1000 ug/ml after 2 hrs; type: cell-based; details: human

Row | SMILES | IC50 [1] | inhibition [2] | Activity [3]
1 | C[C@]1(OC(=O)/C=C/c2ccccc2)C[C@@H](O)[C@]2(O)C=CO[C@@H](O[C@@H]3O[C@H](CO)[C@@H](O)[C@H](O)[C@H]3O)[C@@H]21 [HARPAGOSIDE] | 88.2 µM |  | 
2 | COC(=O)C1=CO[C@@H](O[C@@H]2O[C@H](CO)[C@@H](O)[C@H](O)[C@H]2O)[C@@H]2[C@H](C)O[C@@H](OC)C[C@H]12 |  | inactive | Non-toxic
3 | COC(=O)C1=CO[C@@H](O[C@@H]2O[C@H](CO)[C@@H](O)[C@H](O)[C@H]2O)[C@@H]2[C@H](C)O[C@@H](O)C[C@H]12 [MORRONISIDE] |  | inactive | Non-toxic
